The values below come from PMC4833300, “Identification of Trypanocidal Activity for Known Clinical Compounds Using a New Trypanosoma cruzi Hit-Discovery Screening Cascade” (PLoS Neglected Tropical Diseases, 2016).

For data set [1], the system named is intracellular T. cruzi amastigotes. Nature of the data set: Primary high-content intracellular T. cruzi amastigote assay. It counts as cell-based, Trypanosoma cruzi (Silvio X10/7 A1) in Vero cells. As for the experimental part:
(§1) The compounds tested were obtained from the NIH (Clinical Collection) and from SelleckChem (FDA-approved drug library). Compounds were dispensed into black 384-well assay plates (Corning) by acoustic dispensing (LabCyte ECHO). […] Potencies are reported as pEC50 (-LOG(EC50[M])).
(§2) For the primary intracellular assay the infection conditions were chosen so that no trypomastigote egress occurs during the compound incubation time. First, Vero cells were infected overnight with tissue culture derived T. cruzi trypomastigotes in T225 tissue culture flasks (MOI 5). Next, any remaining free trypomastigotes were washed away with serum free MEM and the infected Vero cells were harvested by trypsinisation. The infected Vero cells were then plated into 384-well plates containing the compounds to be tested, at 4000 cells per well in MEM media with 1% FCS. […] The plates were imaged on a Perkin Elmer Operetta high-content imaging system using a 20x objective. Images were analysed using the Columbus system (Perkin Elmer). The algorithm for the primary assay first identified the Vero nuclei followed by demarcation of the cytoplasm and identification of intracellular amastigotes. This algorithm reported mean number of parasites per Vero cell and total number of Vero cells. Data analysis was as described in [22]. […] Hits from the primary screen were selected based on the following criteria: T. cruzi activity (percent inhibition) > (median T. cruzi percent inhibition + 3 x robust Standard Deviation) and Vero activity (percent inhibition) < (median percent Vero inhibition + 3 x robust Standard Deviation).

Another data set deals with Vero cells. The data set can be described thus: Host cell toxicity read-out of the primary assay (Vero cell count). It is filed as cell-based. The settings on record: Chlorocebus sabaeus, Vero; hits of the bio-actives screen, 10-point dose-response, top concentration 50μM, 72h; read-out: pEC50 (Vero) (converted). Here is the method: as §1, §2
Data set [2] has as its system intracellular T. cruzi. Nature of the data set: Static-cidal assay (percent infected Vero cells, 96 h). It counts as cell-based, Trypanosoma cruzi (Silvio X10/7 A1) in Vero cells. The settings on record: for MAX PI / maximum inhibition in the static-cidal assay: 96h timeframe of the assay. Here is the method:
The secondary static-cidal assay uses the same protocol as the standard assay with the following changes: infection is done at MOI 10, and infected Vero cells are incubated 88h at 37°C in presence of 5% CO2 prior to trypsinisation and plating. Four hours after plating a control plate (no compounds) was fixed with formaldehyde as described above. Compound containing plates were fixed after incubation for 96 hours. Compounds are run as ten point dose response curves in triplicate. The algorithm for the secondary assay was similar to the primary assay but reported percent infected Vero cells instead of the mean number of parasites.
To assess screening hits for their ability to be cytocidal rather than cytostatic or growth slowing we developed a medium throughput (400 compounds / batch) assay to predict cidality of compounds against intracellular T. cruzi. […] Instead we developed an algorithm that assesses whether a Vero cell is infected or not, and we used the percentage of infected cells as primary measurement for the static-cidal assay. In order to readily identify cidal compounds we normalised the raw data using the starting level of infection as 0% effect and the final level of infection in presence of 50μM Nifurtimox as 100% effect control.

Data set [3] concerns intracellular T. cruzi. The data set can be described thus: Rate-of-kill assay (static-cidal assay in timecourse format). It counts as cell-based, Trypanosoma cruzi (Silvio X10/7 A1) in Vero cells. The settings on record: for MCC: Trypanosoma cruzi, -LOG(MCC[M]), minimum cidal concentration, lowest concentration clearing at least half as many Vero cells as Nifurtimox (50μM) within 96 h, read-out: pMCC (RoK) (converted); for rate-of-kill profile (onset / rate of cidal activity): timepoints every 24h up to 96 h; for final residual level of infection (percent infected cells at the end of the assay): end of rate-of-kill timecourse (96 h). Here is the method:
The rate-of-kill assay uses the same protocol as the static-cidal assay but plates are incubated for 24, 48, 72 and 96 hours prior to fixing. Percent infected data is plotted as a time-course for each compound at every concentration. The minimum cidal concentration (MCC) is defined as the lowest concentration of compound that clears at least half as many Vero cells of intracellular parasites as Nifurtimox (50μM) within the timeframe of the assay.
To obtain rate-of-kill information we carried out the static-cidal assay in timecourse format (Fig 4A), with timepoints taken every 24h.

In another data set the target is CYP51 (Trypanosoma cruzi, UniProt Q7Z1V1). Nature of the data set: biochemical. It counts as biochemical.
For data set [4] the following is noted: humans; cited from earlier work.
The mark [5] stands for this setting: Trypanosoma cruzi; hits of the bio-actives screen, 10-point dose-response, top concentration 50μM, 72h; read-out: pEC50 (cruzi) (converted).
Setting [6] is: Trypanosoma cruzi, Vero, 96 h, 0% = starting level of infection, 100% = 50μM Nifurtimox at 96h, only from concentrations not toxic to the host cells, read-out: MAX PI (SC), Maximum Percent Inhibition in the static cidal assay.
The mark [7] stands for this setting: read-out: CYP51 pIC50 (converted).
[8] abbreviates: Trypanosoma cruzi, 72 h; read-out: EC50.
Setting [9] is: Trypanosoma cruzi, 72 h; read-out: Mean pEC50 (converted).

The structures appear in SMILES notation. Like-named read-outs stand apart in the source and are kept apart here.

Chain of CYP51 (Q7Z1V1 whole entry): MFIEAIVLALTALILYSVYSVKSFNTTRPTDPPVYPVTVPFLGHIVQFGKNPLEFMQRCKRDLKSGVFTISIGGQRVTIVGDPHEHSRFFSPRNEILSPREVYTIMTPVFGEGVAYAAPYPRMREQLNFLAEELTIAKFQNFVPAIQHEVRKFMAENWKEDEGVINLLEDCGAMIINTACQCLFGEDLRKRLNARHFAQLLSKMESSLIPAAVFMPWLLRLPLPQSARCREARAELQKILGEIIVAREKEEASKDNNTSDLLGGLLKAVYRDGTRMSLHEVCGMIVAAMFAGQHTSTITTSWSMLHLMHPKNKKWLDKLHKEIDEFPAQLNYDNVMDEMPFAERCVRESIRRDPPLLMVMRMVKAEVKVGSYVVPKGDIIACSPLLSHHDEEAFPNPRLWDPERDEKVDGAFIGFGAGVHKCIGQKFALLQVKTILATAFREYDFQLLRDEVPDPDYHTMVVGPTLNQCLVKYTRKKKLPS

Consider `O=C1Cc2cc(CCN3CCN(c4nsc5ccccc45)CC3)c(Cl)cc2N1` [Ziprasidone], for which the EC50 is 1580 nM in data set [1] (setting [5]) and 25.1 µM in the data set on Vero cells. Moreover, the Emax in the data set on intracellular T. cruzi [2] (setting [6]) was found to be 111%. The MCC in the data set with intracellular T. cruzi [3] was 5.01e-06 M. For the same compound, the “rate-of-kill profile (onset / rate of cidal activity)” value in the data set on intracellular T. cruzi [3] is reported as “fast onset of cidality”. Moreover, the IC50 at CYP51 (setting [7]) is greater than 10 µM. In addition, in data set [4], the oral bioavailability result was “reasonable oral bioavailability”.

As to `CCOC(=O)C(C)(C)Oc1ccc(Cl)cc1` [Clofibrate], the EC50 was 6310 nM in data set [1] (setting [5]) and 15.8 µM in the data set on Vero cells. The Emax in the data set on intracellular T. cruzi [2] (setting [6]) amounted to 116%. The MCC in the data set with intracellular T. cruzi [3] was 1.58e-05 M. The IC50 on CYP51 is greater than 10 µM. In data set [4], the oral bioavailability result is “reasonable oral bioavailability”.

Turning to `c1ccc(-c2ccc(C(c3ccccc3)n3ccnc3)cc2)cc1` (stereo not drawn) [Bifonazole], the EC50 was 10 nM in data set [1] (setting [5]) and 15.8 µM in the data set with Vero cells. The Emax with intracellular T. cruzi [2] (setting [6]) came out at 69%. In the data set with intracellular T. cruzi [3], the MCC was 6.31e-08 M. Moreover, the IC50 on CYP51 (setting [7]) was 0.0398 µM.

For `CN1CCC[C@@H]1CCO[C@](C)(c1ccccc1)c1ccc(Cl)cc1` [Clemastine], in the data set with intracellular T. cruzi [3], the MCC is 2e-07 M. The oral bioavailability entry in data set [4] is listed as “reasonable oral bioavailability”.

In the case of `CC[C@@H]([C@H](C)O)n1ncn(-c2ccc(N3CCN(c4ccc(OC[C@@H]5CO[C@@](Cn6cncn6)(c6ccc(F)cc6F)C5)cc4)CC3)cc2)c1=O` [Posaconazole], in data set [1] (setting [8]), the EC50 worked out at 1 nM. In addition, the EC50 in data set [1] (setting [9]) was 1 nM. In addition, the “MAX PI / maximum inhibition in the static-cidal assay” value (from here on “MAX PI / maximum inhibition”) in the data set on intracellular T. cruzi [2] came to 60%. In addition, the Emax in the data set on intracellular T. cruzi [2] (setting [6]) came to 59%. For the same compound, in the data set with intracellular T. cruzi [3], the MCC was 1e-07 M, the “final residual level of infection (percent infected cells at the end of the assay)” value is given as ~ 15% and the “rate-of-kill profile (onset / rate of cidal activity)” value was “slower acting with a later onset of cidal activity”.

For the compound `O=C(Cn1ccnc1[N+](=O)[O-])NCc1ccccc1` [Benznidazole], the EC50 in data set [1] (Trypanosoma cruzi, 72 h) was 490 nM; in data set [1] (Trypanosoma cruzi, 72 h, read-out: Mean pEC50 (converted)), 501 nM. Besides, the “MAX PI / maximum inhibition” value with intracellular T. cruzi [2] is reported as “around 100%”. Moreover, the Emax with intracellular T. cruzi [2] (Trypanosoma cruzi, Vero, 96 h, read-out: MAX PI (SC), Maximum Percent Inhibition in the static cidal assay) amounted to 91%. For the same compound, the “final residual level of infection (percent infected cells at the end of the assay)” value with intracellular T. cruzi [3] was ~ 8%. The “rate-of-kill profile (onset / rate of cidal activity)” value in the data set with intracellular T. cruzi [3] is “killing seen from 24h onwards”. Also, the IC50 at CYP51 (setting [7]) was greater than 10 µM.

`CN1CCCC(n2nc(Cc3ccc(Cl)cc3)c3ccccc3c2=O)CC1` (stereo not drawn) [Azelastine]: the EC50 in data set [1] (setting [5]) is 251 nM. For the same compound, the EC50 with Vero cells was 15.8 µM. In the data set on intracellular T. cruzi [2] (setting [6]), the Emax stood at 106%. In the data set on intracellular T. cruzi [3], the MCC was 2e-06 M and the “rate-of-kill profile (onset / rate of cidal activity)” value was “a more delayed response”. Besides, the IC50 on CYP51 (setting [7]) is greater than 10 µM. In data set [4], the oral bioavailability result is reported as “reasonable oral bioavailability”.

On to `Clc1ccc(COC(Cn2ccnc2)c2ccc(Cl)cc2Cl)cc1` (stereo not drawn) [Econazole], for which the Emax with intracellular T. cruzi [2] (setting [6]) was 63%. Moreover, the MCC with intracellular T. cruzi [3] was 6.31e-08 M.

As for `CCOC(=O)C1=C(COCCN)NC(C)=C(C(=O)OC)C1c1ccccc1Cl` (stereo not drawn) [Amlodipine], the EC50 in data set [1] (setting [5]) is 501 nM. Further, the Emax in the data set with intracellular T. cruzi [2] (setting [6]) is 113%. The IC50 at CYP51 (setting [7]) is greater than 10 µM.

Turning to `Cc1cn(-c2cc(NC(=O)c3ccc(C)c(Nc4nccc(-c5cccnc5)n4)c3)cc(C(F)(F)F)c2)cn1` [Nilotinib], the EC50 in data set [1] (setting [5]) is 2510 nM. For the same compound, the Emax with intracellular T. cruzi [2] (setting [6]) was 38%. Further, in the data set on intracellular T. cruzi [3], the “rate-of-kill profile (onset / rate of cidal activity)” value is recorded as “a much slower rate”. Also, the “CYP51 inhibition (in words)” value at CYP51 is listed as “strong CYP51 inhibition”.

`CC(C(O)c1ccc(O)cc1)N1CCC(Cc2ccccc2)CC1` (stereo not drawn) [Ifenprodil]: the EC50 in data set [1] (setting [5]) is 501 nM; with Vero cells it was 50.1 µM. Also, the Emax with intracellular T. cruzi [2] (setting [6]) was determined as 117%. Moreover, in the data set with intracellular T. cruzi [3], the MCC is 2e-06 M. Also, the IC50 on CYP51 (setting [7]) was greater than 10 µM. The oral bioavailability result in data set [4] is reported as “reasonable oral bioavailability”.

For `CCC(C)n1ncn(-c2ccc(N3CCN(c4ccc(OCC5COC(Cn6cncn6)(c6ccc(Cl)cc6Cl)O5)cc4)CC3)cc2)c1=O` (stereo not drawn) [Itraconazole], the EC50 in data set [1] (setting [5]) was 10 nM; in the data set with Vero cells, 15.8 µM. The Emax in the data set with intracellular T. cruzi [2] (setting [6]) was 71%. In addition, the MCC in the data set with intracellular T. cruzi [3] was 6.31e-08 M.

Turning to `CC(=O)N1CCN(c2ccc(OCC3COC(Cn4ccnc4)(c4ccc(Cl)cc4Cl)O3)cc2)CC1` (stereo not drawn) [Ketoconazole], the EC50 is 2 nM in data set [1] (setting [8]), 2 nM in data set [1] (setting [9]), 5.01 nM in data set [1] (setting [5]) and 31.6 µM in the data set on Vero cells. Also, the Emax in the data set with intracellular T. cruzi [2] (setting [6]) amounted to 61%. The MCC in the data set on intracellular T. cruzi [3] was 7.94e-09 M.

With `CC1CS(=O)(=O)CCN1/N=C/c1ccc([N+](=O)[O-])o1` (stereo not drawn) [Nifurtimox], in data set [1] (setting [8]), the EC50 is 260 nM. For the same compound, the EC50 in data set [1] (setting [9]) is 251 nM. In addition, the “MAX PI / maximum inhibition” value in the data set with intracellular T. cruzi [2] is given as “around 100%”. For the same compound, in the data set with intracellular T. cruzi [2] (setting [6]), the inhibition at 50 µM amounted to 103%. Further, in the data set with intracellular T. cruzi [3], the MCC was 5.01e-06 M, the “final residual level of infection (percent infected cells at the end of the assay)” value is ~ 8% and the “rate-of-kill profile (onset / rate of cidal activity)” value was “killing seen from 24h onwards”. The compound also showed an IC50 on CYP51 greater than 10 µM.

As for `Clc1ccccc1C(c1ccccc1)(c1ccccc1)n1ccnc1` [Clotrimazole], in the data set on intracellular T. cruzi [2] (setting [6]), the Emax amounted to 60%. Besides, the MCC in the data set on intracellular T. cruzi [3] is 2.51e-08 M.

Regarding `C[C@]12CC[C@H](O)CC1=CC[C@@H]1[C@@H]2CC[C@]2(C)C(c3cccnc3)=CC[C@@H]12` [Abiraterone], the EC50 is 794 nM in data set [1] (setting [5]) and 31.6 µM with Vero cells. For the same compound, the Emax in the data set with intracellular T. cruzi [2] (setting [6]) stood at 60%. Besides, the MCC in the data set with intracellular T. cruzi [3] is 5.01e-05 M. In addition, the IC50 at CYP51 (setting [7]) was greater than 1 µM.
